From article PMC12216181 (Nature Communications, 2025)

Tests used:
[1] = system: EV-D68 US/MO/14-18947 passaged viruses; experiment: Serial passage experiment 1: drug sensitivity of passaged viruses; type: cell-based, Enterovirus D68; settings: Enterovirus D, CPE assay
EV-A71 Tainan/4643/1998 = experiment: Plaque assay, EV-A71 Tainan/4643/1998; type: cell-based; settings: Enterovirus A, EVA71, plaque assay
[2] = Tolerability in uninfected Jun6504-treated mice; type: in vivo; settings: 50 mg/kg dose, uninfected treated animals
[3] = Drug concentration in the spinal cord by LC-MS/MS; type: in vivo, Swiss Webster mouse pups; settings: Swiss Webster, mouse, ip, 50 mg/kg, one hour after the intraperitoneal injection
EV-D68 [4] = experiment: IHC staining of spinal cord sections of EV-D68-infected mice; type: in vivo, Swiss Webster pups; settings: 8 DPI, 24-h delayed treatment model
EV-D68 US/MO/14-18947 [5] = experiment: Plaque assay, EV-D68 US/MO/14-18947 in RD cells; type: cell-based; settings: Enterovirus D, EVD68, RD
EV-D68 US/IL/14-18952 = experiment: EV-D68 infection neonatal mouse model; type: in vivo, Swiss Webster mice; settings: for Weight at DPI14: 50 mg/kg i.p. daily
EV-D68 US/MO/14-18947 [6] = experiment: Time-of-addition experiment, single cycle of EV-D68 replication in RD cells; type: cell-based, Enterovirus D68; settings: 3 µM
EV-D68 [7] = settings: AG129 mice; cited from earlier work
EV-D68-associated AFM = settings: patients with EV-D68-associated AFM; cited from earlier work
EV-D68 [8] = settings: EV-D68 infection neonatal mouse model; cited from earlier work
EV-D68 [9] = settings: EV-D68 animal infection models; cited from earlier work

Compound `CC(C)n1ncc2c(C(=O)NCC3(C)CNC3)cc(C3CC3)nc21` [Jun6504] has an EC50 ([1]; EVD68, P3 virus, selection pressure 400 nM) of 0.8 µM, an EC50 ([1]; EVD68, P6 virus, selection pressure 3.2 μM) of 3.38 µM and an EC50 (EV-A71 Tainan/4643/1998) of 0.22 µM. The tolerability [2] was “no signs of pain, weight loss, or death were observed”, the concentration at 1 h [3] was ~575 ng/g and the “EV-D68-infected (NeuN+) neurons in the cervical enlargement” value (EV-D68 [4]) was “no infected (NeuN+) neurons were observed”. The “ChAT-positive motor neurons in lumbar spinal cord” value (EV-D68 [4]; treated animals with paralysis score 0) was “many ChAT-positive motor neurons present”, the EC50 (EV-D68 US/MO/14-18947 [5]) was 0.13 µM and the “Weight at DPI14” value (EV-D68 US/IL/14-18952; 24-h delayed treatment model, control 8.65 ± 0.23 g) was 9.59 ± 0.27 g. For the same compound, the “Viral titer in spinal cord” value (EV-D68 US/IL/14-18952; DPI5 after 4 daily doses, 24-h delayed model, control 19,834 ± 11,519) was 4520 ± 1796 TCID50, the “Weight at DPI14” value (EV-D68 US/IL/14-18952; immediate treatment model, control 7.92 ± 0.46 g) was 9.29 ± 0.14 g and the “effect on antiviral potency” value (EV-D68 US/MO/14-18947 [6]; added at 5 hpi) was “significant reduction in the antiviral potency”. For the same compound, the effect on efficacy (EV-D68 US/MO/14-18947 [6]; added at 7 hpi) was “almost complete loss of efficacy” and the “effect on EV-D68 amplification” value (EV-D68 US/MO/14-18947 [6]; added before or at 3 h post-infection) was “completely inhibited EV-D68 amplification”.
For `CC(C)S(=O)(=O)n1c(N)nc2ccc(/C(=N/O)c3ccccc3)cc21` [enviroxime], the therapeutic efficacy (EV-D68 [7]) is given as “no therapeutic efficacy”.
For `CNCCC(Oc1ccc(C(F)(F)F)cc1)c1ccccc1` (stereo not shown) [fluoxetine], the neurological outcomes (EV-D68-associated AFM) is listed as “failed to improve neurological outcomes” and the “effect on motor impairment and viral titers” value (EV-D68 [8]) is listed as “did not reduce motor impairment or viral titers in the muscle and spinal cord”.
In the case of `N=C(N)N` [guanidine], the “in vivo antiviral activity” value (EV-D68 [9]) is given as “have shown in vivo antiviral activity”.
For `CCOC(=O)c1ccc(OCCC2CCN(c3ccc(C)nn3)CC2)cc1` [pirodavir], the therapeutic efficacy (EV-D68 [7]) is given as “no therapeutic efficacy”.
In the case of `Cc1cc(CCCOc2c(C)cc(-c3noc(C(F)(F)F)n3)cc2C)on1` [pleconaril], the therapeutic efficacy (EV-D68 [7]) is listed as “no therapeutic efficacy”.
In the case of `NC(=O)c1ncn([C@@H]2O[C@H](CO)[C@@H](O)[C@H]2O)n1` [ribavirin], the therapeutic efficacy (EV-D68 [7]) is listed as “no therapeutic efficacy”.
For `CCOC(=O)/C=C/[C@H](C[C@@H]1CCNC1=O)NC(=O)[C@@H](CC(=O)[C@@H](NC(=O)c1cc(C)on1)C(C)C)Cc1ccc(F)cc1` [rupintrivir], the therapeutic efficacy (EV-D68 [7]) is given as “no therapeutic efficacy”.
